Experimental data published in ChEMBL document CHEMBL1151804, “Antisense-guided isolation and structure elucidation of pannomycin, a substituted cis-decalin from Geomyces pannorum” (2009).
Values after ≈ are worked out from the molar mass of the structure shown. Active and inactive are the calls of the source. No cut-off for these calls is given here.

Assays:
Streptococcus pneumoniae = assay: Antibacterial activity against Streptococcus pneumoniae up to 1.4 mM after 20 hrs; type: functional, organism-based
Enterococcus faecalis = assay: Antibacterial activity against Enterococcus faecalis after 20 hrs; type: functional
Escherichia coli = assay: Antibacterial activity against Escherichia coli up to 1.4 mM after 20 hrs; type: functional, organism-based
Haemophilus influenzae = assay: Antibacterial activity against Haemophilus influenzae up to 1.4 mM after 20 hrs; type: functional, organism-based
Candida albicans = assay: Antifungal activity against Candida albicans up to 1.4 mM after 24 hrs; type: functional, organism-based
Bacillus subtilis = assay: Antibacterial activity against Bacillus subtilis after 20 hrs; type: functional
Staphylococcus aureus [1] = assay: Antibacterial activity against Staphylococcus aureus Smith after 20 hrs; type: functional
Staphylococcus aureus [2] = assay: Antibacterial activity against methicillin-resistant Staphylococcus aureus after 20 hrs; type: functional

Row | MIC (Enterococcus faecalis) | MIC (Bacillus subtilis) | MIC (Staphylococcus aureus [1]) | SMILES | Activity (Streptococcus pneumoniae) | Activity (Escherichia coli) | Activity (Haemophilus influenzae) | Activity (Candida albicans) | MIC (Staphylococcus aureus [2])
1 | 1400 µM (≈ 482 µg/mL) | 400 µM (≈ 138 µg/mL) | 1400 µM (≈ 482 µg/mL) | C/C=C/[C@H]1C(C)=C[C@H]2C[C@H](C)[C@H](O)C[C@H]2[C@]1(C)/C=C(C)/C=C/C(=O)O [PANNOMYCIN] | inactive | inactive | inactive | inactive | –
2 | – | – | – | C/C=C/[C@@H]1C=C[C@@H]2C[C@@H](C)CC[C@@H]2[C@]1(C)C(=O)C1=C(O)C(C(C)O)N(C)C1=O (some centres undefined) [CISSETIN] | – | – | – | – | 10 µM (≈ 3.88 µg/mL)
3 | – | – | – | C/C=C/[C@@H]1C(C)=C[C@@H]2CC[C@@H](C)C[C@@H]2[C@]1(C)C(=O)C1=C(O)C(CO)N(C)C1=O (some centres undefined) | – | – | – | – | 12 µM (≈ 4.65 µg/mL)
